According to ChEMBL document CHEMBL4316589, “Attachment of a 5-nitrofuroyl moiety to spirocyclic piperidines produces non-toxic nitrofurans that are efficacious in vitro against multidrug-resistant Mycobacterium tuberculosis” (Eur J Med Chem, 2019):
In brackets after ≈: the same amount, converted by molar mass.

Assays:
Format in all cases: functional
[1] = tested on: Mycobacterium tuberculosis; experiment: Antimycobacterial activity against patient-derived multidrug-resistant Mycobacterium tuberculosis 5023 measured after 7 days by resazurin dye-based assay; conditions: Mycobacterium tuberculosis, 5023, 168 h
[2] = tested on: Mycobacterium tuberculosis; experiment: Antimycobacterial activity against patient-derived multidrug-resistant Mycobacterium tuberculosis 2712 measured after 7 days by resazurin dye-based assay; conditions: Mycobacterium tuberculosis, 2712, 168 h
[3] = tested on: Mycobacterium tuberculosis; experiment: Antimycobacterial activity against patient-derived multidrug-resistant Mycobacterium tuberculosis 7106 measured after 7 days by resazurin dye-based assay; conditions: Mycobacterium tuberculosis, 7106, 168 h

| Compound | MIC [1] | MIC [2] | MIC [3] |
| --- | --- | --- | --- |
| O=C(c1ccc([N+](=O)[O-])o1)N1CCC2(CC1)CC(Cc1nc(-c3cccnc3)no1)CCO2 (stereo unspecified) | 3.1 µg/mL (≈ 6.84 µM) | 1.6 µg/mL (≈ 3.53 µM) | 6.2 µg/mL (≈ 13.7 µM) |
| O=C(c1ccc([N+](=O)[O-])o1)N1CCC2(CCCCO2)CC1 | 25 µg/mL (≈ 84.9 µM) | 6.2 µg/mL (≈ 21.1 µM) | 25 µg/mL (≈ 84.9 µM) |
| COCCc1noc(CC2CCOC3(CCN(C(=O)c4ccc([N+](=O)[O-])o4)CC3)C2)n1 (stereo unspecified) | 12.5 µg/mL (≈ 28.8 µM) | 12.5 µg/mL (≈ 28.8 µM) | 25 µg/mL (≈ 57.5 µM) |
| O=C(c1ccc([N+](=O)[O-])o1)N1CCC2(CC1)CC(OCc1ccc(F)cc1)CCO2 (stereo unspecified) | 6.2 µg/mL (≈ 14.8 µM) | 25 µg/mL (≈ 59.7 µM) | 6.2 µg/mL (≈ 14.8 µM) |
| COc1ccc(CC2CCOC3(CCN(C(=O)c4ccc([N+](=O)[O-])o4)CC3)C2)cc1 (stereo unspecified) | 3.1 µg/mL (≈ 7.48 µM) | 6.2 µg/mL (≈ 15 µM) | 3.1 µg/mL (≈ 7.48 µM) |
| Cc1ccc(CC2CCOC3(CCN(C(=O)c4ccc([N+](=O)[O-])o4)CC3)C2)cc1 (stereo unspecified) | 3.1 µg/mL (≈ 7.78 µM) | 100 µg/mL (≈ 251 µM) | 100 µg/mL (≈ 251 µM) |
| O=C(c1ccc([N+](=O)[O-])o1)N1CCC2(CC1)CC(Cc1nc(C3CC3)no1)CCO2 (stereo unspecified) | 12.5 µg/mL (≈ 30 µM) | 3.1 µg/mL (≈ 7.44 µM) | 6.2 µg/mL (≈ 14.9 µM) |
